Source: article PMC5443783, “Prostaglandin E2 glyceryl ester is an endogenous agonist of the nucleotide receptor P2Y6” (Scientific Reports, 2017)

Columns and labels:
[1] = target: T1, cannabinoid receptor 2 (Cnr2) (Homo sapiens, UniProt P34972); test: Intracellular Ca2+ measurement in CNR2-transfected HEK293 cells; assay type: cell-based; conditions: 200 nM of 2-AG, Fig. 2c
T1 construct: expressed in transfected cells; host or cells: HEK293
Protocol: RAW264.7 cells were grown in DMEM supplemented with 10% FBS, A7r5 (rat […]) cells in DMEM with 10% FBS, and A431 (human squamous carcinoma) cells in RPMI supplemented with 10% FBS. All cell lines were grown at 37 °C in a humidified 5% CO2 incubator. For functional assays, receptor constructs were heterologously expressed in human embryonic kidney (HEK293) cells upon transient or stable transfection. Cells were grown in DMEM/F12 supplemented with 10% FBS, 100 units/ml penicillin, and 100 µg/ml streptomycin. For the cAMP-inhibition assay, ERK1/2 phosphorylation assay, and Ca^2+ mobilization assay, cells were split into 96-well plates (2.0 × 10^4 cells/well) and transfected with 250 ng vector construct using MACSfectin™ (Miltenyi Biotec, Germany) according to manufacturer’s protocol. Empty vector (mock) served as the negative control. For siRNA experiments, cells were seeded in 6-well plates (4.0 × 10^5 and 6.0 × 10^5 cells/well for RAW264.7 and H1819, respectively). […]
For fluorometric measurements of intracellular Ca^2+ levels with the FlexStationII instrument (Molecular Devices), RAW264.7 and H1819 cells were seeded into 96-well plates (3.0 × 10^4 cells/well) 24 h prior to assay. […] Fold-response was calculated by RFUmax − RFUmin (ligand)/RFUmax − RFUmin (vehicle). EC50 values were calculated by using GraphPad Prism6 software (GraphPad, USA).

[2] = test system: prostanoid receptors EP1–4, DP, FP, TP, or IP; parameters: method as in PMID 18297109, PMID 14766978, PMID 14757851; conditions: cited from earlier work
P2Y6 = P2Y6 (Homo sapiens, UniProt Q15077); test: cAMP-inhibition assay in P2RY6-transfected HEK293 cells; assay type: cell-based; parameters: expressed in transfected cells; host or cells: HEK293; conditions: P2RY6-transfected HEK293, 2.5 µM forskolin, Fig. 3c; read-out: EC50, suppression of cAMP formation
Sequence of P2Y6 (Q15077 whole entry): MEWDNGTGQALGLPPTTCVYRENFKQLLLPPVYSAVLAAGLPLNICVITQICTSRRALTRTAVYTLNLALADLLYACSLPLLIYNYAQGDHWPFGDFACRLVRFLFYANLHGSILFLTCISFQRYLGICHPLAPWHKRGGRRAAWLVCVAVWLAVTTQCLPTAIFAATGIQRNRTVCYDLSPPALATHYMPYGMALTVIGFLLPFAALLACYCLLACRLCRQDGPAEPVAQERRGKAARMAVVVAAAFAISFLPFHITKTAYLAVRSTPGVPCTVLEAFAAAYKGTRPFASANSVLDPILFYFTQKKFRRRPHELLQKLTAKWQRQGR
Protocol: After transfection (72 h), cells were washed once with DMEM/F12 containing 1 mM 3-isobutyl-methyl-xanthine (IBMX) followed by incubation in the presence of the indicated compounds and forskolin (2.5 µM) for 15 min at 37 °C. The final concentration of DMSO was 1%. Cells were lysed in 25 μl lysis buffer (5 mM HEPES; 0.1% BSA; 0.3% Tween20; 1 mM IBMX; pH 7.4) and kept frozen at −20 °C until measurement. To measure cAMP concentration, the AlphaScreen cAMP assay kit (PerkinElmer Life Sciences) was used according to the manufacturer’s protocol.

T1 sequence (P34972 whole entry): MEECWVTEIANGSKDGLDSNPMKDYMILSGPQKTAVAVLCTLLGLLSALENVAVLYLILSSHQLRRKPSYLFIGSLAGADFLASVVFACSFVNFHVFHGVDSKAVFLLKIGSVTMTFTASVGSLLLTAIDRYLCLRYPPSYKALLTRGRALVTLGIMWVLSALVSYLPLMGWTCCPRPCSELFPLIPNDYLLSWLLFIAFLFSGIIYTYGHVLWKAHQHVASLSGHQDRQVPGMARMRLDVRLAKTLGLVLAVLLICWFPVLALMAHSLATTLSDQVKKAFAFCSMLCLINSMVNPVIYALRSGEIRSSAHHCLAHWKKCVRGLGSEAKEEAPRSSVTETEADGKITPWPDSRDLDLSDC

Row | EC50 (P2Y6) | Molecule | effect on intracellular Ca2+ [1] | activation of known prostanoid receptors [2]
1 |  | Prostaglandin E2 glyceryl ester [PGE2-G] | did not | does not efficiently activate
2 | 3.6 ± 0.3 nM | O=c1ccn([C@@H]2O[C@H](COP(=O)(O)OP(=O)(O)O)[C@@H](O)[C@H]2O)c(=O)[nH]1 [UDP] |  | 
